Source: ChEMBL document CHEMBL4028839, “Synthesis of octapeptin C4 and biological profiling against NDM-1 and polymyxin-resistant bacteria” (Bioorg Med Chem Lett, 2017)
Converted amounts (≈) assume the structure as drawn. Bridge positions count the residues as written; N and C are the ends. Square brackets hold non-standard residues; d marks the D form. Peptide text beside a SMILES is read from it. * marks the point of attachment. Decanoyl(3R-OH) = CCCCCCC[C@@H](O)CC(=O)*; dDab = NCC[C@@H](N)C(=O)O; Dab = NCC[C@H](N)C(=O)O

Assays:
Staphylococcus aureus = assay: Antimicrobial activity against meticillin-susceptible Staphylococcus aureus ATCC 25923 measured after 24 hrs; type: functional
Acinetobacter baumannii = assay: Antimicrobial activity against Acinetobacter baumannii ATCC 19606 measured after 24 hrs; type: functional
Pseudomonas aeruginosa [1] = assay: Antimicrobial activity against polymyxin-resistant Pseudomonas aeruginosa clinical isolate FADDI-PA070 measured after 24 hrs; type: functional
Pseudomonas aeruginosa [2] = assay: Antimicrobial activity against Pseudomonas aeruginosa ATCC 27853 measured after 24 hrs; type: functional
Klebsiella pneumoniae [3] = assay: Antimicrobial activity against Klebsiella pneumoniae ATCC 13883 measured after 24 hrs; type: functional
Klebsiella pneumoniae [4] = assay: Antimicrobial activity against NDM-1 positive Klebsiella pneumoniae BAA-2146 measured after 24 hrs; type: functional
Escherichia coli = assay: Antimicrobial activity against Escherichia coli ATCC 25922 measured after 24 hrs; type: functional
[5] = test system: Klebsiella quasipneumoniae subsp. Similipneumoniae; assay: (§1) Antimicrobial activity against multi-drug resistant Klebsiella quasipneumoniae subsp. similipneumoniae ATCC 700603 measured after 24 hrs; type: functional
Pseudomonas aeruginosa [6] = assay: Antimicrobial activity against polymyxin-resistant Pseudomonas aeruginosa clinical isolate PA9704 measured after 24 hrs; type: functional
[7] = as §1; type: functional; conditions: ATCC 700603, 24 h
[8] = (§2) Cytotoxicity against human RPTEC after 24 hrs by LDH assay; type: cell-based; conditions: RPTEC cells
[9] = (§3) Cytotoxicity against HK2 cells after 24 hrs by LDH assay; type: cell-based, HK-2; conditions: human, HK-2 cells
RPTEC = assay: as §2; type: cell-based; conditions: rptec, 24 h
HK-2 = assay: as §3; type: cell-based; conditions: human, hk-2, 24 h
[10] = ATCC 19606 = CIP 70.34 = JCM 6841, 24 h

## POLYMYXIN B [listing 1 of 2 here]
Staphylococcus aureus
  MIC: > 64 µg/mL
Acinetobacter baumannii; ATCC 19606 = CIP 70.34 = JCM 6841
  MIC: 0.25 µg/mL
Pseudomonas aeruginosa [1]
  MIC: 32 µg/mL
Pseudomonas aeruginosa [2]
  MIC: 0.5 µg/mL
Klebsiella pneumoniae [3]
  MIC: 0.25 µg/mL
Klebsiella pneumoniae [4]; ATCC BAA-2146
  MIC: 0.25 µg/mL
Escherichia coli
  MIC: 0.25 µg/mL
[5]
  MIC: 0.25 µg/mL
Pseudomonas aeruginosa [6]
  MIC: 128 µg/mL

## CCCCCCC[C@@H](O)CC(=O)N[C@H](CCN)C(=O)N[C@@H](CCN)C(=O)N[C@@H](CCN)C(=O)N[C@H](Cc1ccccc1)C(=O)N[C@@H](CC(C)C)C(=O)N[C@@H](CCN)C(=O)N[C@@H](CCN)C(=O)N[C@@H](CC(C)C)C(=O)O [listing 1 of 2 here]
Staphylococcus aureus; ATCC 25923, 24 h
  MIC: 32 µg/mL (≈ 30.1 µM)
Acinetobacter baumannii; [10]
  MIC: > 32 µg/mL
Pseudomonas aeruginosa [1]; isolate FADDI-PA070, 24 h
  MIC: 32 µg/mL (≈ 30.1 µM)
Pseudomonas aeruginosa [2]; ATCC 27853, 24 h
  MIC: 4 µg/mL (≈ 3.77 µM)
Klebsiella pneumoniae [3]; ATCC 13883, 24 h
  MIC: > 32 µg/mL
Klebsiella pneumoniae [4]; ATCC BAA-2146, 24 h
  MIC: > 32 µg/mL
Escherichia coli; ATCC 25922, 24 h
  MIC: 16 µg/mL (≈ 15.1 µM)
[7]
  MIC: 16 µg/mL (≈ 15.1 µM)
Pseudomonas aeruginosa [6]; isolate PA9704, 24 h
  MIC: > 32 µg/mL

## CCCCCCC[C@@H](O)CC(=O)N[C@H](CCN)C(=O)N[C@@H](CCN)C(=O)N[C@@H](CCN)C(=O)N[C@H](Cc1ccccc1)C(=O)N[C@@H](CC(C)C)C(=O)N[C@@H](CCN)C(=O)N[C@@H](CCN)C(=O)N[C@@H](CC(C)C)C(=O)O [listing 2 of 2 here]
[8]
  CC50 at 24 h: 71 µM
[9]
  CC50 at 24 h: 139 µM

## POLYMYXIN B [listing 2 of 2 here]
RPTEC
  CC50: > 300 µM
HK-2
  CC50: 135 µM

## CCCCCCC[C@@H](O)CC(=O)N[C@H](CCN)C(=O)N[C@H]1CCNC(=O)[C@H](CC(C)C)NC(=O)[C@H](CCN)NC(=O)[C@H](CCN)NC(=O)[C@H](CC(C)C)NC(=O)[C@@H](Cc2ccccc2)NC(=O)[C@H](CCN)NC1=O ({Decanoyl(3R-OH)}-[dDab][Dab][Dab][dF]L[Dab][Dab]L; lactam 2-C)
[8]
  CC50 at 24 h: 39 µM
[9]
  CC50 at 24 h: 31 µM
Staphylococcus aureus; ATCC 25923, 24 h
  MIC: 16 µg/mL (≈ 15.3 µM)
Acinetobacter baumannii; [10]
  MIC: 4 µg/mL (≈ 3.83 µM)
Pseudomonas aeruginosa [1]; isolate FADDI-PA070, 24 h
  MIC: 2 µg/mL (≈ 1.92 µM)
Pseudomonas aeruginosa [2]; ATCC 27853, 24 h
  MIC: 2 µg/mL (≈ 1.92 µM)
Klebsiella pneumoniae [3]; ATCC 13883, 24 h
  MIC: 8 µg/mL (≈ 7.66 µM)
Klebsiella pneumoniae [4]; ATCC BAA-2146, 24 h
  MIC: 8 µg/mL (≈ 7.66 µM)
Escherichia coli; ATCC 25922, 24 h
  MIC: 4 µg/mL (≈ 3.83 µM)
[7]
  MIC: 8 µg/mL (≈ 7.66 µM)
Pseudomonas aeruginosa [6]; isolate PA9704, 24 h
  MIC: 2 µg/mL (≈ 1.92 µM)
